Reference: US20250346550A1, “METHODS OF MODULATING ENDONUCLEASE G USING RESVERATROL AND ITS DERIVATIVES” (THE REGENTS OF THE UNIVERSITY OF COLORADO A BODY CORPORATE, priority 2022, published 2025)

Legend:
Format in all cases: in vivo, C. elegans
[1] = system: LGG-1 autophagosome enclosure of MTR-stained paternal mitochondria in zygotes; experiment: autophagosome formation on paternal mitochondria (SIM, anti-LGG-1); conditions: males pretreated with 50 μM; for isolated paternal mitochondria: mock 16%; for paternal mitochondria fully enclosed by autophagosomes: mock 49%
Method: FIG. 4. Resveratrol isomers affect autophagosome formation on paternal mitochondria. a-f, Analysis of enclosure of MTR-stained paternal mitochondria by LGG-1 autophagosomes. Zygotes from the indicated crosses with MTR-stained N2 males pretreated with 0.25% ethanol (Mock)(a,b), 50 μM trans-resveratrol (c,d), or 50 μM cis-resveratrol (e,f) were labeled with an antibody to LGG-1. Images were acquired with a Nikon SIM microscope. Dashed rectangles highlight the areas enlarged and shown below ([…]). Scale bars, 2 μm (a,c,e), 0.5 μm (b,d,f). g, Quantification of four types of paternal mitochondria in zygotes that were fully enclosed, partially enclosed, and not enclosed (isolated) by the LGG-1 autophagosomes and that had initiating phagophore, respectively. The number of MTR-stained paternal mitochondria scored in each experiment was shown below the pie chart.
CPS-6 plays a key role in promoting internal breakdown of paternal mitochondria and rapid autophagosome formation on damaged paternal mitochondria following fertilization, which leads to their subsequent degradation by autophagy. We tested if resveratrol isomers affect autophagosome formation on paternal mitochondria using superresolution structured illumination microscopy (SIM). In zygotes from mating of MTR-stained and mock-treated N2 males with unstained N2 hermaphrodites, close to one half (49%) of MTR-stained paternal mitochondria were fully enclosed by autophagosomes labeled by anti-LGG-1 monoclonal antibody (FIG. 4a, b and g). The remaining paternal mitochondria either were partially enclosed by autophagosomes (23%), or had adjacent autophagosome membrane that could initiate the elongation process along the paternal mitochondrion (12%; initiating phagophore), or were isolated (16%) with no nearby autophagosome or phagophore (FIG. 4a, b and g). In zygotes from mating of MTR-stained and trans-resveratrol-treated N2 males with N2 hermaphrodites, autophagosome formation on paternal mitochondria increased dramatically, with 75% of paternal mitochondria fully enclosed and 12% of paternal mitochondria partially enclosed by autophagosomes (FIG. 4c, d and g). […] On the other hand, in zygotes from mating between unstained N2 hermaphrodites and MTR-stained and cis-resveratrol-treated N2 males, autophagosome formation on paternal mitochondria decreased substantially.

[2] = system: cps-6(tm3222); baIn11 animals; experiment: DA neuronal death in cps-6(tm3222); baIn11 animals; conditions: 100 μM, adult day 2
Text: FIG. 8. […] In each experiment, 300 animals were scored to determine the percentage of animals losing at least one dopaminergic neuron in the head. Data are mean±s.e.m. *P<0.05; ***P<0.001, two-sided, unpaired t-test.
In addition to PME and apoptosis, EndoG was previously shown to play an important role in mediating dopaminergic (DA) neuronal death induced by expression of human α-synuclein, which is widely considered to be a major proponent of Parkinson's disease. However, the mechanism by which EndoG mediates α-synuclein-induced neurodegeneration is unclear. In a C. elegans α-synuclein-based Parkinson's Disease model, co-expression of GFP and human α-synuclein in C. elegans dopaminergic neurons under the control of the promoter of the dat-1 gene, which encodes a dopamine transporter, from an integrated transgene baIn11 (Pdat-1::gfp/Pdat-1::α-synuclein) caused DA neuronal death in 30% of adult baIn11 animals (FIG. 8a). The cps-6(tm3222) mutation blocked DA neuronal death in adult baIn11 animals (FIG. 8a), confirming that CPS-6 is important for α-synuclein-induced DA neuronal death.

[3] = system: paternal uaDf5 mtDNA in cross-fertilized embryos; experiment: PCR-based PME assay (paternal uaDf5 mtDNA); conditions: 50 μM; mock: detected up to 64-cell stage embryos
Text: FIG. 7. Effects of different dosages of resveratrol isomers on PME. a, b, The effects of different dosages of cis-resveratrol (a) and trans-resveratrol (b) on PME. The numbers of MTR-stained paternal mitochondrial clusters in 64-cell embryos (a) or 16-cell embryos (b) from mating of MTR-stained N2 males with N2 hermaphrodites in the presence of the indicated concentrations of resveratrol isomers were scored. […] A single cross-fertilized embryo or larva (MTR- or GFP-positive) at the indicated stage was analyzed by PCR. uaDf5/+ and N2 hermaphrodites were controls.
We confirmed these findings using a polymerase chain reaction (PCR)-based PME assay, which monitors the fate of paternal mtDNA in fertilized eggs from males carrying a 3053 bp mtDNA deletion allele (uaDf5) in a heteroplasmic mixture with wild-type mtDNA (FIG. 7c). In mating between N2 hermaphrodites and uaDf5/+ males treated with the mock control, PCR products derived specifically from paternal uaDf5 mtDNA were detected only in early stage cross-fertilized embryos, up to 64-cell stage embryos (FIG. 2d).

Row | Structure (SMILES) | isolated paternal mitochondria [1] [%] | paternal mitochondria partially enclosed by autophagosomes ([1]; mock 23%) [%] | paternal mitochondria fully enclosed by autophagosomes [1] [%] | dopaminergic neuronal loss in cps-6(tm3222); baIn11 animals [2] | fate of paternal uaDf5 mtDNA [3]
1 | Oc1ccc(/C=C/c2cc(O)cc(O)c2)cc1 [trans-resveratrol, 3,5,4′-trihydroxy-trans-stilbene] | 7 | 12 | 75 | did not cause any dopaminergic neuronal loss | accelerated degradation of uaDf5 mtDNA
2 | Oc1ccc(/C=C\c2cc(O)cc(O)c2)cc1 [cis-resveratrol] | 31 |  | 35 | did not cause any dopaminergic neuronal loss | persistence of uaDf5 mtDNA to the late 4-fold embryos
